Experimental findings from patent publication US10364256B2 (GlaxoSmithKline Intellectual Property Development Limited, priority 2015, dated 2019) are described below.

Assay [1] deals with T1, Keap1 Kelch domain (321-609) / TAMRA-labeled 16mer NRF2 peptide (ETGE motif) (Homo sapiens, UniProt Q14145).
T1 construct: the Kelch domain (321-609) of Keap1 is used
Description: NRF2-Keap1 FP Assay (Keap1 Kelch fluorescence polarization). The assay is classed as binding. The note with it: 20 nM Keap1 (321-609), 8 nM Tamra labeled peptide. An excerpt: One model for the NRF2-Keap1 interaction is through two binding sites in the Neh2 domain on NRF2. The two sites are referred to as the DLG binding motif (latch domain, uM affinity) and the ETGE binding motif (hinge domain, nM affinity). The Keap1 protein consists of an N-terminal region (NTR), a broad complex, tramtrack, and brick a′ brac domain (BTB), an intervening region (IVR), a double glycine repeat domain (DGR or Kelch), and a C-terminal region. The DLG and ETGE motifs of NRF2's Neh2 domain bind to the Kelch domain of Keap1 at different affinities. In the Keap1 Kelch fluorescence polarization (FP) assay, a TAMRA-labeled 16mer peptide (AFFAQLQLDEETGEFL) containing the ETGE motif of NRF2 and the Kelch domain (321-609) of Keap1 is used. The assay determines if a compound interferes with the binding between Keap1 […] and the TAMRA-labeled peptide. Binding of TAMRA-labeled NRF2 peptide to Keap1 (321-609) results in a high FP signal. If a compound interferes with the binding between the peptide and the protein, it will cause the assay signal to decrease. Thus, assay signal is inversely proportional to binding inhibition.
100 nl of 100× compound dose response curves (serial 3-fold dilutions) in DMSO are stamped using an Echo liquid handling system (Labcyte) into 384-well low volume black assay plates (Greiner, #784076), with DMSO in columns 6 and 18. The top concentration of compound is located in columns 1 and 13. Keap1 (321-609) is diluted to 40 nM (2×) in 1× assay buffer (50 mM Tris, pH 8.0, 100 mM NaCl, 5 mM MgCl2, 1 mM DTT, 2 mM CHAPS, and 0.005% BSA) and 5 ul is added using a Multidrop Combi (Thermo Electron Corporation) equipped with a metal tip dispenser to all wells of the compound plate, except column 18. Column 18 receives only 5 ul of assay buffer. Immediately, 5 uL of 16 nM (2×) of Tamra labeled peptide (AFFAQLQLDEETGEFL, 21st Century Biochemicals) is added to all wells of the plate. The plates are spun at 500 rpm for 1 min, incubated for 1 hr at room temperature, and read on an Analyst GT (Molecular Devices) equipped with excitation (530/25 nm) and emission (580/10 nm) filters designed for Tamra probes. A 561 nm dichroic mirror is also used in the Analyst. The final assay concentrations of Keap1 (321-609) and Tamra labeled peptide are 20 nM and 8 nM, respectively. Fluorescence measurements, represented as mP, are used in the transformation of the data. Compound activity is calculated based on percent inhibition, normalized against controls in the assay (Control 1 contains the Tamra peptide and Keap1 (321-609) together (0% response) and control 2 contains the Tamra peptide alone (100% response)). Data analysis is handled using the software package Abase XE (Surrey, United Kingdom. The % inhibition values are calculated by the equation: 100−(100*((compound response−average control 2)/(average control 1−average control2))). For calculation of pIC50s, Abase XE uses a four parameter equation. pIC50 is the negative log of the IC50.

Assay [2] deals with T2, full length Keap1 protein / full length NRF2 protein (Homo sapiens, UniProt Q14145).
T2 construct: full length NRF2 protein and full length Keap1 protein (Keap1 exists a dimer) are used; His
T2 sequence (Q14145 whole entry): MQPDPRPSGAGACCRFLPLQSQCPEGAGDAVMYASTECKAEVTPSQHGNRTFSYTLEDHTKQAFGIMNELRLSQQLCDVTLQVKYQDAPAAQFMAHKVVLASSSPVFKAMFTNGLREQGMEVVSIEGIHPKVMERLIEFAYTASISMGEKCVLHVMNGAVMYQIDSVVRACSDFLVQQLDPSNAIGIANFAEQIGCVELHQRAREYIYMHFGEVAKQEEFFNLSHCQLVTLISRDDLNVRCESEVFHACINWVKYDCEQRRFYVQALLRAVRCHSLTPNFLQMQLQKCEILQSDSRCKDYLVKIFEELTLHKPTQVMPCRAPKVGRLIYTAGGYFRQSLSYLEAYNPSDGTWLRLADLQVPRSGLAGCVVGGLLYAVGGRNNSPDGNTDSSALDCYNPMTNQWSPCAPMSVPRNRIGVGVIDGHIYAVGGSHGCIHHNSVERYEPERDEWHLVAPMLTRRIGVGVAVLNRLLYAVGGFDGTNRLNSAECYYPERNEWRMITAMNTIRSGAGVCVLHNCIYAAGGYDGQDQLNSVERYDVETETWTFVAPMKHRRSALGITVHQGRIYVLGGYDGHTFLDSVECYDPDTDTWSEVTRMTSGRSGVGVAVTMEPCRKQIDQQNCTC
The assay is described as follows: NRF2-Keap1 TR-FRET Low Protein Assay. The assay is classed as binding. The note with it: 1.25 nM Keap1 FlagHis and 2.5 nM biotin-NRF2 added. From the text: NRF2-Keap1 TR-FRET Low Protein Assay In the NRF2-Keap1 TR-FRET (time-resolved fluorescence resonance energy transfer) low protein assay, full length NRF2 protein and full length Keap1 protein (Keap1 exists a dimer) are used. The assay detects a compound's ability to displace the binding of Keap1 […] with biotinylated Avi-NRF2 protein. Biotin-NRF2 binds to streptavidin-europium (a component of the detection mix) and Keap1 […] is recognized by anti-Flag APC (allophycocyanin) antibody (also a component of the detection mix). If binding occurs between the two proteins, there will be an energy transfer from the Eu+3 (donor) at 615 nm to the APC (acceptor) at 665 nm. A potential NRF2 inhibitor will cause a reduction in the TR-FRET signal by interfering with the binding of Keap1 to NRF2. Ten nanoliters of 100× compound dose response curves (serial 3-fold dilutions) in DMSO are stamped using an Echo liquid handling system (Labcyte) into 384-well, low volume, black assay plates (Greiner, #784076), with DMSO in columns 6 and 18. An additional 90 nl DMSO is added to each well, to bring the total volume to 100 nl per well. The top concentration of compound is located in columns 1 and 13, with the serial dilutions going across the row. All reagents are diluted in assay buffer (50 mM Tris, pH 8.0, 5 mM MgCl2, 100 mM NaCl, 0.005% BSA, 1 mM DTT, and 2 mM CHAPS. The BSA, DTT, and CHAPS are added to the assay buffer on the day of assay. […] Wells in column 18 receive 5 ul of assay buffer instead. Plates are centrifuged at 500 rpm for 1 minute, covered with a plate lid, and incubated at 37° C. for 2.25 hours. Plates are then removed from the incubator and allowed to cool to RT for 15 minutes. Five microliters of 2.5 nM biotin-NRF2 protein is then added to all wells of the plates and the plates are spun at 500 rpm for 1 minute, followed by incubating at 4° C. for 1.25 hours. The plates are then allowed to warm to RT for 15 minutes, followed by the addition of 10 ul of detection mix (1 nM Streptavidin Eu+W1024 and 5 ug/ml mouse anti-DYKDDDDK IgG conjugated to SureLight APC antibody; both from Columbia Biosciences) to all wells. Plates are spun at 500 rpm for 1 minute, incubated for 1 hour at RT, and read on an Envision plate reader using a 320 nm excitation filter and 615 nm and 665 nm emission filters. […] Data analysis is handled using the software package Abase XE (Surrey, United Kingdom). […] For calculation of pIC50s, Abase XE uses a four parameter equation. pIC50 is the negative log of the IC50.

Assay [3] deals with NQO1 specific enzyme activity in BEAS-2B cells (marker for NRF2 activation). The assay is described as follows: BEAS-2B NQO1 MTT Assay. The assay is classed as cell-based. The note with it: Homo sapiens, compound incubated 48 hours, read-out: EC50 (NQO1 specific enzyme activity induction). From the text:
BEAS-2B NQO1 MTT Assay NAD(P)H:quinone oxidoreductase 1 (NQO1), also called DT diaphorase, is a homodimeric FAD-containing enzyme that catalyzes obligatory NAD(P)H-dependent two-electron reductions of quinones and protects cells against the toxic and neoplastic effects of free radicals and reactive oxygen species arising from one-electron reductions. The transcription of NQO1 is finely regulated by NRF2, and thus NQO1 activity is a good marker for NRF2 activation. On day one, frozen BEAS-2B cells (ATCC) are thawed in a water bath, counted, and re-suspended at a concentration of 250,000 cells/mL. Fifty microliters of cells are plated in 384 well black clear-bottomed plates. Plates are incubated at 37° C., 5% CO2 overnight. On day two, plates are centrifuged and 50 nL of compound or controls are added to the cells. Plates are then incubated at 37° C., 5% CO2 for 48 hours. On day four, medium is aspirated from the plate and crude cell lysates are made by adding 13 uL of 1× Cell Signaling Technologies lysis buffer with 1 Complete, Mini, EDTA-free Protease Inhibitor Tablet (Roche) for each 10 mL of lysis buffer. After lysis plates are incubated for 20 minutes at room temperature. Two microliters of lysate are removed for use in Cell Titer Glo assay (Promega) and MTT cocktail is prepared (Prochaska et. al. 1998) for measurement of NQO1 activity. Fifty microliters of MTT cocktail is added to each well, plate is centrifuged, and analyzed on an Envision plate reader (Perkin Elmer) using Absorbance 570 nm label for 30 minutes. Product formation is measured kinetically and the pEC50 of NQO1 specific activity induction is calculated by plotting the change in absorbance (Delta OD/min) versus the log of compound concentration followed by 3-parameter fitting. pEC50 is the negative log of the EC50.

Like-named read-outs stand apart in the source and are kept apart here.

T1 sequence (Q14145 321-609): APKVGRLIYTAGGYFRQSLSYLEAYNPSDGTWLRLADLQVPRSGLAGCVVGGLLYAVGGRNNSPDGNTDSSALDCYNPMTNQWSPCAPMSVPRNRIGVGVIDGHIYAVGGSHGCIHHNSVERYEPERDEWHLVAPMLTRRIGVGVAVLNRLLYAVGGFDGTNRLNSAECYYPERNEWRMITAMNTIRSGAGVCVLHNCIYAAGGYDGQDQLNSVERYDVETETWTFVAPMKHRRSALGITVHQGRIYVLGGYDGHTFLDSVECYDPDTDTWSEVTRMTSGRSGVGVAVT

Take `C[C@H](Oc1cccc(-c2cccc(-n3ncc(C(=O)O)c3[C@@H]3C[C@H]3c3cn(C4CNC4)nn3)c2)c1)C1CCCCC1` (racemic) [Example 85, 5-(trans-2-(1-(Azetidin-3-yl)-1H-1,2,3-triazol-4-yl)cyclopropyl)-1-(3′-((S)-1-cyclohexylethoxy)-[1,1′-biphenyl]-3-yl)-1H-pyrazole-4-carboxylic Acid]: the IC50 in assay [1] and in assay [2] was 10 to 100 nM throughout. Moreover, the EC50 in assay [3] lay in the range of 100 to 1000 nM.

For the compound `C[C@H](Oc1cccc(-c2cccc(-n3ncc(C(=O)O)c3[C@@H]3C[C@H]3c3cn(C4CCNCC4)nn3)c2)c1)C1CCCCC1` (racemic) [Example 86, 1-(3′-((S)-1-cyclohexylethoxy)-[1,1′-biphenyl]-3-yl)-5-(trans-2-(1-(piperidin-4-yl)-1H-1,2,3-triazol-4-yl)cyclopropyl)-1H-pyrazole-4-carboxylic Acid], the half-inhibitory concentration (IC50) in assay [1] and in assay [2] was 10 to 100 nM in each case. Moreover, the EC50 in assay [3] was 100 to 1000 nM.

As for `C[C@H](Oc1cccc(-c2cccc(-n3ncc(C(=O)O)c3[C@@H]3C[C@H]3c3cn(Cc4ccccc4)nn3)c2)c1)C1CCCCC1` (racemic) [Example 87, 5-(trans-2-(1-Benzyl-1H-1,2,3-triazol-4-yl)cyclopropyl)-1-(3′-((S)-1-cyclohexylethoxy)-[1,1′-biphenyl]-3-yl)-1H-pyrazole-4-carboxylic Acid], the IC50 in assay [1] and in assay [2] was 100 to 1000 nM each time. The EC50 in assay [3] was in the range of 10 to 100 nM.

In the case of `C[C@H](Oc1cccc(-c2cccc(-n3ncc(C(=O)O)c3[C@@H]3C[C@H]3c3cn(CCN(C)C)nn3)c2)c1)C1CCCCC1` (racemic) [Example 88, 1-(3′-((S)-1-Cyclohexylethoxy)-[1,1′-biphenyl]-3-yl)-5-(trans-2-(1-(2-(dimethylamino)ethyl)-1H-1,2,3-triazol-4-yl)cyclopropyl)-1H-pyrazole-4-carboxylic acid], the IC50 in assay [1] and in assay [2] was 10 to 100 nM throughout. Further, in assay [3], the EC50 was in the range of 10 to 100 nM.

In the case of `C[C@H](Oc1cccc(-c2cccc(-n3ncc(C(=O)O)c3[C@@H]3C[C@H]3c3cn(CCO)nn3)c2)c1)C1CCCCC1` (racemic) [Example 90, 1-(3′-((S)-1-Cyclohexylethoxy)-[1,1′-biphenyl]-3-yl)-5-(trans-2-(1-(2-hydroxyethyl)-1H-1,2,3-triazol-4-yl)cyclopropyl)-1H-pyrazole-4-carboxylic acid], the IC50 in assay [1] was 10 to 100 nM; in assay [2], less than 10 nM. In addition, in assay [3], the EC50 lay within 10 to 100 nM.

Take `CC(C)n1cc([C@@H]2C[C@H]2c2c(C(=O)O)cnn2-c2cccc(-c3cccc(O[C@@H](C)C4CCCCC4)c3)c2)nn1` (racemic) [Example 91, 1-(3′-((S)-1-Cyclohexylethoxy)-[1,1′-biphenyl]-3-yl)-5-(trans-2-(1-isopropyl-1H-1,2,3-triazol-4-yl)cyclopropyl)-1H-pyrazole-4-carboxylic acid]: the IC50 in assay [1] and in assay [2] was 10 to 100 nM in each case. Besides, in assay [3], the concentration giving a half-maximal response (EC50) lay in the range of 1 to 10 nM.

With `C[C@H](Oc1cccc(-c2cccc(-n3ncc(C(=O)O)c3[C@@H]3C[C@H]3c3cn(-c4ccccc4)nn3)c2)c1)C1CCCCC1` (racemic) [Example 92], the IC50 in assay [1] lay in the range of 10 to 100 nM; in assay [2], 100 to 1000 nM. Besides, in assay [3], the concentration giving a half-maximal response (EC50) lay in the range of 1 to 10 nM.

`C[C@H](Oc1cccc(-c2cccc(-n3ncc(C(=O)O)c3[C@@H]3C[C@H]3c3cn(C4CN(C)C4)nn3)c2)c1)C1CCCCC1` (racemic) [Example 94, 1-(3′-((S)-1-Cyclohexylethoxy)-[1,1′-biphenyl]-3-yl)-5-(trans-2-(1-(1-methylazetidin-3-yl)-1H-1,2,3-triazol-4-yl)cyclopropyl)-1H-pyrazole-4-carboxylic Acid]: the IC50 in assay [1] and in assay [2] was 10 to 100 nM each time. Also, the EC50 in assay [3] was 10 to 100 nM.

Turning to `C[C@H](Oc1cccc(-c2cccc(-n3ncc(C(=O)O)c3[C@H]3C[C@H]3c3cn(C)nn3)c2)c1)C1CCCCC1` (racemic) [Example 101, 1-(3′-((S)-1-cyclohexylethoxy)-[1,1′-biphenyl]-3-yl)-5-(cis-2-(1-methyl-1H-1,2,3-triazol-4-yl)cyclopropyl)-1H-pyrazole-4-carboxylic Acid], the IC50 in assay [1] was greater than 10000 nM; in assay [2] it was 1000 to 10000 nM. In assay [3] (BEAS-2B, 48 h), the EC50 was 100 to 1000 nM.

In general, IC50 refers to the concentration that gives 50% inhibition. The EC50 is the concentration giving half of the maximal effect.
